Laboratory results published in patent US6011019A, “Vasoactive effects and free radical generation by β-amyloid peptides” (University of South Florida, priority 1996, dated 2000).

Columns and labels:
[1] = test system: Sprague-Dawley rats; test: Morris water maze acquisition and memory retention during intravenous Aβ infusion; type: in vivo, rat; settings: days 7-14
Procedure: (§2) Eleven three month old male Sprague-Dawley rats (300-350 g) were anesthetized with sodium pentobarbital (50 mg/kg, ip.) and a polyethylene cannula was inserted into the right external jugular vein to approach or enter the right atrium. […] The remaining six animals served as controls by receiving twice daily intravenous infusions of vehicle solution. Treatments were continued for 14 days, with Morris water maze "acquisition" (learning) tested during days 7-13 and water maze memory retention evaluated on day 14. Daily acquisition testing consisted of four consecutive daily trials, wherein latency to reach the submerged platform in Quadrant 2(Q2) was determined and a daily average calculated. For the memory retention trial, the submerged platform was removed and animals were placed in the quadrant opposite Q2. The percentage of time spent in the quadrant formerly containing the platform (Q2) was used as a measure of memory retention. Acquisition data was analyzed using two-way ANOVA for repeated measures and retention data was analyzed with one-way ANOVA and Student's t-test.

[2] = test system: Sprague-Dawley rats; settings: rat, in vivo
Procedure: as §2
On day 15, animals were anesthetized with sodium pentobarbital and transcardially perfused with 4% paraformaldehyde in 0.1M PBS (pH 7.4). Tissue samples from the lung, heart, kidney, liver and pancreas were collected and post-fixed in perfusate solution until histologic processing. Brains were removed and placed in perfusate for 24 hours, followed by cytoprotective storage in 30% sucrose until histologic processing. For all tissues 20 and 40 μm frozen sections were collected and stained with Mayer's Acid Hemalin followed by alkaline Congo red. Selected 20 μm brain sections were stained for glial fibrillary acidic protein (GFAP).

[3] = test system: human aortic endothelial cel line (HAEC)
Procedure: All these cells were maintained at 37° C., under an atmosphere containing 5% CO2. For the present experiments, HAEC and BE(2)-M17 were seeded at densities of 2×10^4 cells per well in 24-23ll clusters.
The experiments were terminated one half, one, two and three hours post treatment by detachment with Trypsin/EDTA solution and followed by a toxicity assay with trypan blue exclusion. In parallel experiments, cells were attached to a round Thermanox (Nunc) at the bottom of the well, and were stopped three to 24 hours post treatment by fixation with 4% neutral formalin solution which was followed by Hematoxylin-Eosin stain to show morphology.
Morphological changes in cells were monitored throughout the course of the experiment with an inverse phase-contrast microscope. After termination of the experiments, the cells fixed on the Thermanox were subjected to routine Hematoxylin-Eosin (HE) stain. The morphological characteristics of toxic cells were observed under light microscope and typical results were recorded by photographs.
For approximate quantification of Aβ toxicity of HAEC, modified procedure for trypan blue exclusion was employed. In brief, the detached cells were resuspended with an appropriate volume of culture media, 20 μl of this cell suspension was mixed with an equivalent volume of 4% Trypan-blue solution thoroughly, and allowed to sit for two minutes after mixing. Approximately 9 μl of the mixture was transferred to a hemocytometer for cell counting. The cell viability was determined by the equation: [formula] In the case of severe toxicity, where some of the cells were lysed, the total cell numbers were adjusted by that of controls. In this experiment, counts for each sample were triplicated.

[4] = test system: rat coronary arteries; test: Rat coronary artery constriction and relaxation (U46619, acetylcholine); settings: for constriction of rat coronary artery by the peptide: 10^-6 M peptide
Procedure: The effects of β-amyloid peptide were examined on samples of rat coronary arteries prepared as described above. Referring specifically to FIG. 1, rat coronary arteries were treated with β-amyloid peptide (Aβ40) causing constriction of the coronary arteries.
FIG. 3 illustrates the effect of various amyloid fragments on the constriction of rat coronary arteries. Following control constriction with 10^-7 M U46619, the tissue samples were rinsed, equilibrated with buffer, and treated with 10^-6 M Aβ peptides for fifteen minutes. Following treatment with the Aβ peptides, the blood vessels were rinsed and again exposed to U46619. The values are expressed as percent of control constriction produced by U46619 alone.
The effect of pretreatment of coronary arteries with a single dose (10^-6 M) of A40 on acetylcholine induced relaxation is shown in FIG. 20. The blood vessel was preconstricted with 10^-7 M U46619 and relaxed with increasing doses of acetylcholine (10^-9 M to 10^-5 M).

[5] = test system: rat aorta; test: Enhancement of endothelin-1 (ET-1) induced vasoconstriction of rat aorta
Procedure: Normal Sprague-Dawley rats were sacrificed by decapitation, and freshly dissected rat aorta was segmented into rings and suspended in Ringers buffer using a tensiometer linked to the MacLab system. Following a two hour equilibration period, the "pretreatment" contraction was carried out. The aortic rings were contracted using a range of doses of endothelin-1 and relaxed using a single odes of acetylcholing (Ach(10^-7 M)). […] The dose of each Aβ peptide was 1 μM, with the exception of Aβ25-35 (1 μM and 5 μM), and was added ten minutes prior to the first ET-1 dose. For SOD treatment we added 150 U/ml 30 seconds before the addition of Aβ.
Endothelium was removed by gently passing a glass pipette, dipped in saline solution, through the lumen of the aortae several time, allowing the pipette to gently brush the endothelial surface. Endothelium was removed from the aortae prior to hanging in the tissue bath system. Both pre-and post treatment contractions involved a single does of ET-1 (5×10^-9 M).
(§1) In all cases the mean difference in percentage contraction in the pre- and post-contractions (before and after addition of test compound respectively) was measured, and compared between the two. Endogenous production of ET-1 was measured using an ET-1 RIA kit (Peninsula Laboratories).

[6] = test system: ET-1; test: Endogenous ET-1 release, radioimmunoassay; parameters: species or system rat; settings: competition with 125I-labeled ET-1
Procedure: as §1
To investigate the possibility that Aβ releases endogenous stores of ET-1 a radioimmunoassay in which endogenous ET-1 released into the vessel buffer, would compete with ^125 I-labeled ET-1 for binding to a specific antibody was performed. […] In addition, to examine the role played by lipid peroxidation is in the vasoconstrictive mechanism, vessels were contracted in the presence of allopurinol, which inhibits the conversion of xanthine dehydrogenase to xanthine oxidase, preventing lipid peroxidation.

[7] = test system: basilar artery; test: Diameter of the basilar artery in living animals after Aβ infusion; type: in vivo, rat
Procedure: In the experiments, the animals were infused twice daily for two weeks for an estimated final molarity of 0.5 μM. In the experiments, Aβ1-40 was used. The Aβ infused animals developed gross lung pathology. The lung capillary beds were the first to be reached by the venously infused Aβ. […] This is consistent with the conclusion that in Alzheimer's Disease, the cerebral vasculature could potentially be damaged and destroyed by circulating or locally produced Aβ.

[8] = test system: human neuroblastoma cell line (BE(2)-M17); test: Aβ toxicity on BE(2)-M17 (trypan blue exclusion); type: cell-based; settings: same concentrations as HAEC cultures, up to day eight; data not shown
Source text: Trypan blue exclusion was used for the cell viability assay.

## Aβ1-40: Soluble Aβ containing forty amino acids; supplied by RBI and/or MD Enterprise
[1]
  water maze acquisition and memory retention: no different from that of vehicle-infused controls
[2]
  Congo red birefringence in the brains: no Congo red birefringence was observed
  perivascular gliosis in GFAP stained brain sections: increased perivascular gliosis was evident
  severe vascular accidents in other peripheral tissues (kidney, pancreas, heart): not, however, typically seen
[3]
  cell viability at 32 μM: significantly less cell viability compared to control
  cell viability at low concentrations: not found to induce significant change of cell viability
  toxicity of several batches (RBI, MD, Sigma): almost non-toxic to HAEC
[4]
  constriction of rat coronary artery by the peptide: induce constriction of the coronary artery
[4]; listed as Aβ
  constriction of rat coronary artery by the peptide: small but detectable contraction
[4]; 10^-6 M peptides, real time recording
  duration of constriction compared among fragments: longest sustained constriction
[4]; 10^-7 M U46619 after 10^-6 M Aβ for fifteen minutes
  U46619 induced vasoconstriction following Aβ treatment: significantly potentiated
[5]
  effect of Aβ on the ET-A antagonist induced decrease of ET-1 contraction: in part countered
  enhancement in aortae from older versus younger rats: trend towards greater enhancement in older rats
[5]; peptide 1 μM (Aβ25-35 1 μM and 5 μM) ten minutes prior to first ET-1 dose
  enhancement of ET-1 contraction: dramatically enhanced the contraction of rat aorta by ET-1
[5]; single dose ET-1 5×10^-9 M
  enhancement of ET-1 contraction in the absence of endothelium: enhance contraction of rat aortae to an extent not significantly different from the enhancement observed in the presence of endothelium
[6]
  release of endogenous ET-1 into the vessel buffer: did not indicate that any unlabelled ET-1 was present
[7]
  basilar artery diameter: results in constriction of this artery
[8]
  toxic effect on differentiated BE(2)-M17 cells: not toxic effect was noticed
